According to PubChem BioAssay AID330 (DTP/NCI, 2004):
Toxic doses and inconclusive results are not listed. How the source made its calls: active means survival T/C of 150% or more; inactive means T/C below 125% in these data.

Test system: P388 leukemia ip, CD2F1 mice, survival T/C
Assay: NCI In Vivo Anticancer Drug Screen. Data for tumor model P388 Leukemia (intraperitoneal) in CD2F1 (CDF1) mice
Details: endpoint: median survival time, higher = longer survival
Procedure, shortened: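 Mice carrying the transplanted tumor received test compound or vehicle. Survival was recorded in each group, and the value is the treated-group measurement divided by that of the vehicle-treated control group.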

[1] = dose: 50.0 mg/kg/injection, schedule: Q04DX003 (ip), vehicle: saline with Tween-80
[2] = dose: 50.0 mg/kg/injection, schedule: Q01DX009 (ip), vehicle: saline with Tween-80
[3] = dose: 100.0 mg/kg/injection, schedule: Q01DX009 (ip), vehicle: saline with Tween-80
[4] = dose: 200.0 mg/kg/injection, schedule: Q01DX009 (ip), vehicle: saline with Tween-80

Measured: T/C

CCCCCCNCC(=O)OCC
inactive: dose: 50.0 mg/kg/injection, schedule: Q01DX005 (ip), vehicle: saline 101 % of control | dose: 100.0 mg/kg/injection, schedule: Q01DX005 (ip), vehicle: saline 106 % of control | dose: 200.0 mg/kg/injection, schedule: Q01DX005 (ip), vehicle: saline 110 % of control

O=C(OCc1ccccc1)N1C[C@@H](O)[C@H](Br)[C@H]1Cc1ccccc1
inactive: dose: 100.0 mg/kg/injection, schedule: Q01DX001 (ip), vehicle: distilled water + alcohol 103 % of control | dose: 200.0 mg/kg/injection, schedule: Q01DX001 (ip), vehicle: distilled water + alcohol 100 % of control | dose: 400.0 mg/kg/injection, schedule: Q01DX001 (ip), vehicle: distilled water + alcohol 97 % of control

Cc1c(NC(=S)Nc2ccccc2)c(=O)n(-c2ccccc2)n1C
inactive: dose: 50.0 mg/kg/injection, schedule: Q01DX005 (ip), vehicle: saline with Tween-80 93 % of control | dose: 100.0 mg/kg/injection, schedule: Q01DX005 (ip), vehicle: saline with Tween-80 93 % of control | dose: 200.0 mg/kg/injection, schedule: Q01DX005 (ip), vehicle: saline with Tween-80 89 % of control

CCCCCCCCCCCCCCC1(O)OC(=O)C(C)=C1C (centres undefined)
inactive: dose: 12.5 mg/kg/injection, schedule: Q04DX003 (ip), vehicle: saline with Tween-80 106 % of control | dose: 25.0 mg/kg/injection, schedule: Q04DX003 (ip), vehicle: saline with Tween-80 103 % of control | [1] 106 % of control

CNC(=O)Cc1ccc2cc(OC)c(OC)cc2c1
inactive: [2] 90 % of control | [3] 95 % of control | [4] 90 % of control

NNC(=O)c1ccccc1
inactive: dose: 25.0 mg/kg/injection, schedule: Q01DX009 (ip), vehicle: saline with Tween-80 104 % of control | [2] 113 % of control | [1] 95 % of control | dose: 100.0 mg/kg/injection, schedule: Q04DX003 (ip), vehicle: saline with Tween-80 100 % of control

C[n+]1ccc(NN)cc1
inactive: dose: 50.0 mg/kg/injection, schedule: Q01DX005 (ip), vehicle: Klucel (hydroxypropylcellulose) (HPC) 100 % of control | dose: 100.0 mg/kg/injection, schedule: Q01DX005 (ip), vehicle: Klucel (hydroxypropylcellulose) (HPC) 103 % of control | dose: 200.0 mg/kg/injection, schedule: Q01DX005 (ip), vehicle: Klucel (hydroxypropylcellulose) (HPC) 101 % of control

COc1cc(OC)c(OC)cc1/C=C/[N+](=O)[O-]
inactive: dose: 100.0 mg/kg/injection, schedule: Q04DX003 (ip), vehicle: Klucel (hydroxypropylcellulose) (HPC) 102 % of control | dose: 200.0 mg/kg/injection, schedule: Q04DX003 (ip), vehicle: Klucel (hydroxypropylcellulose) (HPC) 100 % of control | dose: 400.0 mg/kg/injection, schedule: Q04DX003 (ip), vehicle: Klucel (hydroxypropylcellulose) (HPC) 111 % of control

COC1/C=C/OC2(C)Oc3c(C)c(O)c4c(O)c(c(/C=N/N5C(C)CN(Cc6ccc(C)cc6)CC5C)c(O)c4c3C2=O)NC(=O)C(C)=C/C=C/C(C)C(O)C(C)C(O)C(C)C(OC(C)=O)C1C (centres undefined)
inactive: [2] 97 % of control | [3] 96 % of control | [4] 103 % of control

O=c1c(N=Nc2ccccc2)c(O)n(-c2ccc(Cl)cc2)c(=S)n1-c1ccc(Br)cc1
inactive: dose: 100.0 mg/kg/injection, schedule: Q04DX002 (ip), vehicle: saline with Tween-80 102 % of control | dose: 200.0 mg/kg/injection, schedule: Q04DX002 (ip), vehicle: saline with Tween-80 103 % of control | dose: 400.0 mg/kg/injection, schedule: Q04DX002 (ip), vehicle: saline with Tween-80 94 % of control

CS(=O)CSCC(N)C(=O)O (centres undefined)
inactive: dose: 25.0 mg/kg/injection, schedule: Q01DX009 (ip), vehicle: water 91 % of control | dose: 50.0 mg/kg/injection, schedule: Q01DX009 (ip), vehicle: water 100 % of control | dose: 100.0 mg/kg/injection, schedule: Q01DX009 (ip), vehicle: water 93 % of control | dose: 200.0 mg/kg/injection, schedule: Q01DX009 (ip), vehicle: water 99 % of control | dose: 400.0 mg/kg/injection, schedule: Q01DX009 (ip), vehicle: water 96 % of control

CC1(C)c2ccccc2-c2nc3ccccc3cc2C1O (centres undefined)
inactive: dose: 25.0 mg/kg/injection, schedule: Q01DX001 (ip), vehicle: saline 96 % of control | dose: 50.0 mg/kg/injection, schedule: Q01DX001 (ip), vehicle: saline 103 % of control | dose: 100.0 mg/kg/injection, schedule: Q01DX001 (ip), vehicle: saline 101 % of control | dose: 200.0 mg/kg/injection, schedule: Q01DX001 (ip), vehicle: saline 103 % of control

CCOC(=O)Cn1nc(-c2ccccc2)c(-c2ccccc2)c(C#N)c1=O
inactive: dose: 25.0 mg/kg/injection, schedule: Q04DX002 (ip), vehicle: distilled water + Tween-80 95 % of control | dose: 50.0 mg/kg/injection, schedule: Q04DX002 (ip), vehicle: distilled water + Tween-80 107 % of control | dose: 100.0 mg/kg/injection, schedule: Q04DX002 (ip), vehicle: distilled water + Tween-80 98 % of control | dose: 200.0 mg/kg/injection, schedule: Q04DX002 (ip), vehicle: distilled water + Tween-80 92 % of control
